The supplement of paper PMC10307832

Key:
Assay in all cases: relative viability (nuclei count vs DMSO), 5 days (fraction); higher = more cells survive
XMD14-99 + Pictilisib = compound: CN1CCN(CC1)C2=CC(=C(C=C2)NC3=NC(=C(S3)C(=O)C4=C(C=CC=C4Cl)Cl)N)OC [XMD14-99] + CS(=O)(=O)N1CCN(Cc2cc3nc(-c4cccc5[nH]ncc45)nc(N4CCOCC4)c3s2)CC1 [Pictilisib] (partner 1 µM)
Procedure, shortened: (§1)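 Lung cancer cell lines were pin-tool dosed in 1536-well plates on the day after seeding, with either a lone drug or a fixed anchor-drug dose plus five library-drug doses (not always all listed) in √10 steps. Nuclei were counted on 4× images after 5 days. Relative viability is the ratio of treated-well to vehicle-well nuclei counts, with each value a median of duplicate plates.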

XMD14-99 + Tozasertib = compound: CN1CCN(CC1)C2=CC(=C(C=C2)NC3=NC(=C(S3)C(=O)C4=C(C=CC=C4Cl)Cl)N)OC [XMD14-99] + Cc1cc(Nc2cc(N3CCN(C)CC3)nc(Sc3ccc(NC(=O)C4CC4)cc3)n2)n[nH]1 [Tozasertib] (partner 0.1 µM)
Procedure, shortened: as §1

XMD14-99 + Linsitinib = compound: CN1CCN(CC1)C2=CC(=C(C=C2)NC3=NC(=C(S3)C(=O)C4=C(C=CC=C4Cl)Cl)N)OC [XMD14-99] + C[C@]1(O)C[C@@H](c2nc(-c3ccc4ccc(-c5ccccc5)nc4c3)c3c(N)nccn32)C1 [Linsitinib] (partner 1 µM)
Procedure, shortened: as §1

XMD14-99 + OSI-027 = compound: CN1CCN(CC1)C2=CC(=C(C=C2)NC3=NC(=C(S3)C(=O)C4=C(C=CC=C4Cl)Cl)N)OC [XMD14-99] + COc1cccc2cc(-c3nc([C@H]4CC[C@H](C(=O)O)CC4)n4ncnc(N)c34)[nH]c12 [OSI-027] (partner 0.5 µM)
Procedure, shortened: as §1

XMD14-99 + Crizotinib = compound: CN1CCN(CC1)C2=CC(=C(C=C2)NC3=NC(=C(S3)C(=O)C4=C(C=CC=C4Cl)Cl)N)OC [XMD14-99] + C[C@@H](Oc1cc(-c2cnn(C3CCNCC3)c2)cnc1N)c1c(Cl)ccc(F)c1Cl [Crizotinib] (partner 1 µM)
Procedure, shortened: as §1

Cell Line | relative viability (XMD14-99 + Pictilisib; first compound 0.08 µM) | relative viability (XMD14-99 + Pictilisib; first compound 0.8 µM) | relative viability (XMD14-99 + Pictilisib; first compound 2.53 µM) | relative viability (XMD14-99 + Pictilisib; first compound 8 µM) | relative viability (XMD14-99 + Tozasertib; first compound 0.08 µM) | relative viability (XMD14-99 + Tozasertib; first compound 0.8 µM) | relative viability (XMD14-99 + Tozasertib; first compound 2.53 µM) | relative viability (XMD14-99 + Tozasertib; first compound 8 µM) | relative viability (XMD14-99 + Linsitinib; first compound 0.08 µM) | relative viability (XMD14-99 + Linsitinib; first compound 0.8 µM) | relative viability (XMD14-99 + Linsitinib; first compound 2.53 µM) | relative viability (XMD14-99 + Linsitinib; first compound 8 µM) | relative viability (XMD14-99 + OSI-027; first compound 0.08 µM) | relative viability (XMD14-99 + OSI-027; first compound 0.8 µM) | relative viability (XMD14-99 + OSI-027; first compound 2.53 µM) | relative viability (XMD14-99 + OSI-027; first compound 8 µM) | relative viability (XMD14-99 + Crizotinib; first compound 0.08 µM) | relative viability (XMD14-99 + Crizotinib; first compound 0.8 µM) | relative viability (XMD14-99 + Crizotinib; first compound 2.53 µM) | relative viability (XMD14-99 + Crizotinib; first compound 8 µM)
HCC-15 | 0.727 | 0.778 | 0.703 | 0.495 | 0.421 | 0.31 | 0.322 | 0.199 | 0.91 | 0.902 | 0.826 | 0.702 | 0.606 | 0.622 | 0.638 | 0.463 | 0.773 | 0.816 | 0.807 | 0.605
HCC-44 | 0.6 | 0.655 | 0.568 | 0.626 | 1 | 0.921 | 0.929 | 0.605 | 0.719 | 0.692 | 0.708 | 0.61 | 0.46 | 0.493 | 0.421 | 0.469 | 0.828 | 0.762 | 0.855 | 0.765
HCC-78 | 0.221 | 0.224 | 0.2 | 0.191 | 0.407 | 0.335 | 0.398 | 0.347 | 0.526 | 0.477 | 0.509 | 0.446 | 0.389 | 0.339 | 0.377 | 0.319 | 0.325 | 0.319 | 0.351 | 0.255
HCC-366 | 0.137 | 0.143 | 0.156 | 0.149 | 0.117 | 0.109 | 0.657 | 0.0463 | 0.619 | 0.641 | 0.781 | 0.602 | 0.855 | 1.05 | 0.82 | 0.608 | 0.494 | 0.503 | 0.478 | 0.497
HCC-827 | 1.1 | 0.895 | 0.917 | 0.998 | 0.393 | 0.394 | 0.342 | 0.404 | 0.991 | 0.86 | 0.828 | 0.802 | 0.726 | 0.68 | 0.655 | 0.608 | 0.857 | 0.906 | 0.754 | 0.752
HOP-62 | 0.917 | 0.842 | 0.808 | 0.646 | 0.375 | 0.341 | 0.351 | 0.241 | 0.965 | 0.894 | 0.794 | 0.894 | 0.873 | 0.877 | 0.772 | 0.662 | 1.06 | 0.942 | 0.883 | 0.663
IA-LM | 0.34 | 0.256 | 0.157 | 0.191 |  |  |  |  | 0.648 | 0.308 | 0.286 | 0.281 |  |  |  |  | 0.742 | 0.561 | 0.435 | 0.331
LC-2-ad | 0.488 | 0.439 | 0.49 | 0.32 | 0.399 | 0.481 | 0.484 | 0.418 | 0.892 | 0.817 | 0.83 | 0.563 | 0.845 | 0.866 | 0.771 | 0.679 | 0.424 | 0.461 | 0.478 | 0.414
NCI-H522 |  |  |  |  | 0.513 | 0.646 | 0.712 | 0.639 |  |  |  |  | 0.742 | 0.742 | 0.683 | 0.72 |  |  |  | 
NCI-H1299 | 0.668 | 0.637 | 0.623 | 0.505 |  |  |  |  | 0.95 | 0.905 | 0.908 | 0.846 |  |  |  |  | 0.946 | 0.898 | 0.998 | 0.769
NCI-H1395 | 0.626 | 0.67 | 0.585 | 0.535 | 0.689 | 0.79 | 0.537 | 0.651 | 1.04 | 1.02 | 0.955 | 0.784 | 0.687 | 0.639 | 0.654 | 0.584 |  |  |  | 
NCI-H1563 | 0.683 | 0.632 | 0.666 | 0.568 |  |  |  |  | 1.21 | 1.12 | 1.17 | 1.08 | 0.753 | 0.766 | 0.733 | 0.641 | 0.858 | 0.905 | 0.896 | 0.786
NCI-H1623 |  |  |  |  | 0.429 | 0.429 | 0.38 | 0.394 |  |  |  |  | 0.434 | 0.43 | 0.392 | 0.396 |  |  |  | 
NCI-H1648 |  |  |  |  | 0.362 | 0.292 | 0.316 | 0.253 |  |  |  |  | 0.268 | 0.25 | 0.231 | 0.227 |  |  |  | 
NCI-H1650 | 0.561 | 0.67 | 0.505 | 0.328 | 0.351 | 0.422 | 0.319 | 0.258 |  |  |  |  | 0.705 | 0.7 | 0.49 | 0.395 | 1 | 0.951 | 1.09 | 0.849
NCI-H1703 | 0.276 | 0.269 | 0.27 | 0.22 |  |  |  |  | 0.843 | 0.888 | 0.752 | 0.57 |  |  |  |  | 0.611 | 0.52 | 0.58 | 0.587
NCI-H1792 | 0.281 | 0.252 | 0.22 | 0.182 |  |  |  |  | 0.637 | 0.522 | 0.432 | 0.311 | 0.71 | 0.686 | 0.657 | 0.413 | 1.02 | 0.956 | 1.01 | 0.709
NCI-H1793 | 0.423 | 0.289 | 0.368 | 0.333 | 0.329 | 0.377 | 0.34 | 0.28 | 0.9 | 0.979 | 0.703 | 0.738 | 0.269 | 0.26 | 0.232 | 0.199 |  |  |  | 
NCI-H2170 | 0.311 | 0.355 | 0.273 | 0.28 | 0.702 | 0.667 | 0.696 | 0.575 |  |  |  |  | 0.709 | 0.772 | 0.65 | 0.621 | 1.14 | 1.21 | 1.26 | 0.937
NCI-H2342 |  |  |  |  | 0.483 | 0.628 | 0.591 | 0.516 |  |  |  |  | 0.594 | 0.674 | 0.752 | 0.548 |  |  |  | 
SW 900 |  |  |  |  | 0.665 | 0.453 | 0.451 | 0.37 |  |  |  |  | 0.532 | 0.727 | 0.548 | 0.366 |  |  |  | 
